Results on 24 molecules are retold here after patent US20240101546A1, “HETEROARYL-ACETYLENES, PHARMACEUTICAL COMPOSITIONS THEREOF, AND THEIR THERAPEUTIC APPLICATIONS” (Eubulus Biotherapeutics Inc., priority 2020, published 2024).

This assay relates to lung cancer cell line NCI-H82. In words: Cell proliferation assay, NCI-H82 (CELL-TITER GLO). It is filed as cell-based. As to conditions: Homo sapiens, NCI-H82, 72 h, NCI-H82 cells, 72 h incubation, cell viability by CELL-TITER GLO, top concentration 1 μM; read-out: EC50, Inhibition of NCl-H82 Cell Proliferation. In a few lines: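 NCI-H82 cells, 1,000 per well in RPMI1640, were treated after overnight plating with a 3-fold dilution series from 1 μM. Viability read by CellTiter-Glo luminescence after 72 h. EC50 derived from the curves.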
Turning to `C#Cc1nc(NC(=O)N[C@@H](CO)c2ccc(-c3ccccc3C#N)cc2)cs1` [Compound A44, (R)-1-(1-(2′-Cyano-[1,1′-biphenyl]-4-yl)-2-hydroxyethyl)-3-(2-ethynylthiazol-4-yl)urea], the EC50 is ≤ 200 nM. Next, `C#Cc1nc(NC(=O)N[C@@H](COC(N)=O)c2ccc(-c3ccnc(N4CCCC4)c3)cc2)cs1` [Compound A235, (R)-2-(3-(2-Ethynylthiazol-4-yl)ureido)-2-(4-(2-(pyrrolidin-1-yl)pyridin-4-yl)-phenyl)ethyl carbamate]: ≤ 200 nM. The result for `C#Cc1nnc(NC(=O)N[C@@H](CO)c2ccc(-c3cccc(N4CCCC4)n3)cn2)s1` [Compound A96, (R)-1-(5-Ethynyl-1,3,4-thiadiazol-2-yl)-3-(2-hydroxy-1-(6-(pyrrolidin-1-yl)-[2,3′-bipyridin]-6′-yl)ethyl)urea] reads ≤ 200 nM; that for `C#Cc1nc(NC(=O)N[C@@H](COC(=O)NC)c2ccc(-c3cccc4ncsc34)cc2)cs1` [Compound A224, (R)-2-(4-(Benzo[d]thiazol-7-yl)phenyl)-2-(3-(2-ethynylthiazol-4-yl)ureido)ethyl methylcarbamate], ≤ 200 nM. Next, `C#Cc1nc(NC(=O)N2CCN(c3ccc(-c4cccc(N5CCCC5)c4)cc3C#N)C[C@@H]2CO)cs1` [Compound B53, (R)-4-(3-Cyano-3′-(pyrrolidin-1-yl)-[1,1′-biphenyl]-4-yl)-N-(2-ethynylthiazol-4-yl)-2-(hydroxymethyl)piperazine-1-carboxamide]: ≤ 200 nM; `C#Cc1nnc(NC(=O)N[C@@H](CO)c2ccc(-c3cccc4ccnc(O)c34)cc2)s1` [Compound A108, (R)-1-(5-Ethynyl-1,3,4-thiadiazol-2-yl)-3-(2-hydroxy-1-(4-(1-hydroxyisoquinolin-8-yl)phenyl)ethyl)urea]: 200 to 1000 nM; `C#Cc1nc(NC(=O)Nc2ncnc3cc(-c4c(O)cccc4F)ccc23)cs1` [Compound A163, 1-(2-Ethynylthiazol-4-yl)-3-(7-(2-fluoro-6-hydroxyphenyl)quinazolin-4-yl)urea]: ≤ 200 nM.

For the molecule `C#Cc1nc(NC(=O)N[C@@H](CO)C(=O)N2CCC3(CCCCC3)CC2)cs1` [Compound A157, (S)-1-(2-Ethynylthiazol-4-yl)-3-(3-hydroxy-1-oxo-1-(3-azaspiro[5.5]undecan-3-yl)propan-2-yl)urea], the EC50 is ≤ 200 nM. Next, `C#Cc1ncc(NC(=O)N[C@@H](COC(N)=O)c2ccc(-c3cccc(N4CCCC4)n3)cn2)s1` [Compound A90, (R)-2-(3-(2-Ethynylthiazol-5-yl)ureido)-2-(6-(pyrrolidin-1-yl)-[2,3′-bipyridin]-6′-yl)ethyl carbamate]: ≤ 200 nM; `C#Cc1nc(NC(=O)N[C@@H](CS(C)(=O)=O)c2ccc(-c3cccc4ncsc34)cc2)cs1` [Compound A197, (R)-1-(1-(4-(Benzo[d]thiazol-7-yl)phenyl)-2-(methylsulfonyl)ethyl)-3-(2-ethynyl-thiazol-4-yl)urea]: ≤ 200 nM.

On to `C#Cc1nc(NC(=O)NCC(=O)N2CCN(c3ccccc3C#N)CC2)cs1` [Compound A36, 1-(2-(4-(2-Cyanophenyl)piperazin-1-yl)-2-oxoethyl)-3-(2-ethynylthiazol-4-yl)urea], for which the EC50 was ≤ 200 nM.

Turning to `C#Cc1nc(NC(=O)N[C@@H](COC(N)=O)c2ccc(-c3cccnc3C3(C#N)CC3)cc2)cs1` [Compound A63, (R)-2-(4-(2-(1-Cyanocyclopropyl)pyridin-3-yl)phenyl)-2-(3-(2-ethynylthiazol-4-yl)ureido)ethyl carbamate], the EC50 was ≤ 200 nM. Next, `C#Cc1nc(NC(=O)N[C@@H](CO)c2ccc(N3CCOCC3=O)cc2)cs1` [Compound A134, (R)-1-(2-Ethynylthiazol-4-yl)-3-(2-hydroxy-1-(4-(3-oxomorpholino)phenyl)-ethyl)urea]: 200 to 1000 nM. The result for `C#Cc1nc(NC(=O)N[C@@H](CO)C(=O)N2CCC3(CC2)CC3)cs1` [Compound A152, (S)-1-(2-Ethynylthiazol-4-yl)-3-(3-hydroxy-1-oxo-1-(6-azaspiro[2.5]octan-6-yl)propan-2-yl)urea] reads ≤ 200 nM; that for `C#Cc1nnc(NC(=O)N[C@@H](CO)c2ccc(-c3cccc4ncsc34)cc2)s1` [Compound A120, (R)-1-(1-(4-(Benzo[d]thiazol-7-yl)phenyl)-2-hydroxyethyl)-3-(5-ethynyl-1,3,4-thiadiazol-2-yl)urea], ≤ 200 nM. Next, `C#Cc1nnc(NC(=O)N[C@@H](CO)c2ccc(-c3ccc(F)cc3C3CC3(F)F)cn2)s1` (stereo partly drawn) [Compound A85, 1-((1R)-1-(5-(2-(2,2-Difluorocyclopropyl)-4-fluorophenyl)pyridin-2-yl)-2-hydroxyethyl)-3-(5-ethynyl-1,3,4-thiadiazol-2-yl)urea]: ≤ 200 nM; `C#Cc1nc(NC(=O)N[C@H](CO)C(=O)N2CCN(c3ccccc3C#N)CC2)cs1` [Compound A148, (R)-1-(1-(4-(2-Cyanophenyl)piperazin-1-yl)-3-hydroxy-1-oxopropan-2-yl)-3-(2-ethynylthiazol-4-yl)urea]: ≤ 200 nM; `C#Cc1nc(NC(=O)N[C@@H](C(=O)NC)c2ccc(-c3cccc(C4(C#N)CC4)c3)cc2)cs1` [Compound A217, (R)-2-(3′-(1-Cyanocyclopropyl)-[1,1′-biphenyl]-4-yl)-2-(3-(2-ethynylthiazol-4-yl)ureido)-N-methylacetamide]: ≤ 200 nM.

Turning to `C#Cc1nc(NC(=O)N[C@@H](CO)c2ccc(C3CCN(C)CC3)cc2)cs1` [Compound A184, (R)-1-(2-Ethynylthiazol-4-yl)-3-(2-hydroxy-1-(4-(1-methylpiperidin-4-yl)phenyl)-ethyl)urea], the EC50 fell in the range of 200 to 1000 nM. Take `C#Cc1nc(NC(=O)N[C@@H](CO)c2ccc(-c3cccc(N4CCC(F)(F)C4)c3)cc2)cs1` [Compound A181, (R)-1-(1-(3′-(3,3-Difluoropyrrolidin-1-yl)-[1,1′-biphenyl]-4-yl)-2-hydroxyethyl)-3-(2-ethynylthiazol-4-yl)urea]: the EC50 was ≤ 200 nM. Regarding `C#Cc1nc(NC(=O)N[C@@H](CO)c2ccc(-c3cccc(N4CC(F)(F)C4)c3)cc2)cs1` [Compound A191, (R)-1-(1-(3′-(3,3-Difluoroazetidin-1-yl)-[1,1′-biphenyl]-4-yl)-2-hydroxyethyl)-3-(2-ethynylthiazol-4-yl)urea], the EC50 was ≤ 200 nM.

Take `C#Cc1nnc(NC(=O)N(C)[C@@H](CO)c2ccc(-c3ccc(F)cc3C3CC3(F)F)cn2)s1` (stereo partly drawn) [Compound A86, 1-((1R)-1-(5-(2-(2,2-Difluorocyclopropyl)-4-fluorophenyl)pyridin-2-yl)-2-hydroxyethyl)-3-(5-ethynyl-1,3,4-thiadiazol-2-yl)-1-methylurea]: the EC50 is ≤ 200 nM. Next, `C#Cc1nc(NC(=O)N[C@@H](CO)c2ccc(-c3cccc(N4CCCC4)c3)cc2)cs1` [Compound A42, (R)-1-(2-Ethynylthiazol-4-yl)-3-(2-hydroxy-1-(3′-(pyrrolidin-1-yl)-[1,1′-biphenyl]-4-yl)ethyl)urea]: ≤ 200 nM; `C#Cc1nc(NC(=O)N2CCN(c3ccc(-c4c(C#N)ccc5nc(N)sc45)cc3)CC2)cs1` [Compound B25, 4-(4-(2-Amino-6-cyanobenzo[d]thiazol-7-yl)phenyl)-N-(2-ethynylthiazol-4-yl)-piperazine-1-carboxamide]: ≤ 200 nM.
